Where a SMILES comes first, the peptide text is derived from it.
Columns and labels:
K562 = assay: Cytotoxicity against human K562 cells after 72 hrs by sulforhodamine B assay; type: functional, cell-based; conditions: Homo sapiens, K562, 72 h
A549 = assay: cells; conditions: Homo sapiens, A549, 72 h
Description: Cytotoxicity against human A549 cells after 72 hrs by sulforhodamine B assay

[1] = tested on: Trichophyton mentagrophytes; assay: Antifungal activity against Trichophyton mentagrophytes IFO 40996 measured after 48 to 72 hrs; type: functional
Salmonella typhimurium = assay: Antibacterial activity against Salmonella typhimurium ATCC 14028 measured after 24 hrs; type: functional, Salmonella enterica subsp. enterica serovar Typhimurium; conditions: Salmonella enterica, ATCC 14028, 24 h
MDA-MB-231 = assay: Cytotoxicity against human MDA-MB-231 cells after 72 hrs by sulforhodamine B assay; type: functional, cell-based; conditions: Homo sapiens, MDA-MB-231, 72 h
[2] = target: Sodium/potassium-transporting ATPase; assay: Inhibition of potassium-activated sodium/potassium ATPase in human placenta using 3-O-methylfluorescein phosphate as substrate measured for 90 secs by fluorescence assay
Escherichia coli = assay: Antibacterial activity against Escherichia coli ATCC 25922 measured after 24 hrs; type: functional; conditions: ATCC 25922, 24 h
Trichophyton rubrum = assay: Antifungal activity against Trichophyton rubrum IFO 9185 measured after 48 to 72 hrs; type: functional
Candida albicans = assay: Antifungal activity against Candida albicans ATCC 10231 measured after 48 to 72 hrs; type: functional
SNU-638 = assay: Cytotoxicity against human SNU638 cells after 72 hrs by sulforhodamine B assay; type: functional, cell-based; conditions: Homo sapiens, SNU-638, 72 h
Proteus vulgaris = assay: Antibacterial activity against Proteus vulgaris ATCC 3851 measured after 24 hrs; type: functional; conditions: ATCC 3851, 24 h
Micrococcus luteus = assay: Antibacterial activity against Micrococcus luteus IFC 12708 measured after 24 hrs; type: functional; conditions: IFC 12708, 24 h
Staphylococcus aureus = assay: Antibacterial activity against Staphylococcus aureus ATCC 6538P measured after 24 hrs; type: functional
HCT-116 = assay: Cytotoxicity against human HCT116 cells after 72 hrs by sulforhodamine B assay; type: functional, cell-based; conditions: Homo sapiens, HCT-116, 72 h
Aspergillus fumigatus = assay: Antifungal activity against Aspergillus fumigatus HIC 6094 measured after 48 to 72 hrs; type: functional
Bacillus spizizenii = assay: Antibacterial activity against Bacillus subtilis ATCC 6633 measured after 24 hrs; type: functional; conditions: ATCC 6633, 24 h
SK-HEP1 = assay: Cytotoxicity against human SKHEP1 cells after 72 hrs by sulforhodamine B assay; type: functional, cell-based; conditions: Homo sapiens, SK-HEP1, 72 h
[3] = Inhibition of recombinant bacterial sortase A using Dabcyl-QALPETGEE-Edans as substrate measured after 1 hr by fluorescence assay; design: species or system Bacteria

SMILES	IC50 (K562)	IC50 (A549)	MIC [1]	MIC (Salmonella typhimurium)	IC50 (MDA-MB-231)	IC50 [2]	MIC (Escherichia coli)	MIC (Trichophyton rubrum)	MIC (Candida albicans)	IC50 (SNU-638)	MIC (Proteus vulgaris)	MIC (Micrococcus luteus)	MIC (Staphylococcus aureus)	IC50 (HCT-116)	MIC (Aspergillus fumigatus)	MIC (Bacillus spizizenii)	IC50 (SK-HEP1)	IC50 [3]
CC[C@H](C)[C@@H]1NC(=O)[C@H](Cc2ccccc2)NC(=O)[C@@H]2CCCN2C(=O)[C@@H]([C@H](C)O)NC(=O)[C@@H]2CCCN2C(=O)[C@H](CO)NC(=O)[C@H](C)NC1=O	30 µM	7.4 µM	> 128 µM	> 128 µM	10 µM	> 100 µM	> 128 µM	> 128 µM	> 128 µM	24 µM	> 128 µM	> 128 µM	> 128 µM	4.5 µM	> 128 µM	> 128 µM	7.2 µM	> 100 µM
CC(C)C[C@@H]1NC(=O)[C@H](CO)NC(=O)[C@@H]2CCCN2C(=O)[C@H](Cc2ccc(O)cc2)NC(=O)[C@H](Cc2ccc(O)cc2)NC(=O)[C@@H]2CCCN2C(=O)[C@H](Cc2ccc(O)cc2)NC1=O (HELM PEPTIDE1{L.Y.P.Y.Y.P.S}$PEPTIDE1,PEPTIDE1,1:R1-7:R2$$$V2.0)	> 50 µM	> 50 µM	> 128 µM	> 128 µM	> 50 µM	> 100 µM	> 128 µM	> 128 µM	> 128 µM	> 50 µM	> 128 µM	> 128 µM	> 128 µM	> 50 µM	> 128 µM	> 128 µM	> 50 µM	> 100 µM
CC[C@H](C)[C@@H]1NC(=O)[C@@H]2CCCN2C(=O)[C@@H]2CCCN2C(=O)[C@H]([C@@H](C)CC)NC(=O)[C@H](Cc2ccc(O)cc2)NC(=O)[C@@H]2CCCN2C(=O)[C@@H]2CCCN2C(=O)[C@H](CC(C)C)NC(=O)[C@H](C(C)C)NC(=O)[C@H](Cc2ccccc2)NC1=O (HELM PEPTIDE1{F.V.L.P.P.Y.I.P.P.I}$PEPTIDE1,PEPTIDE1,1:R1-10:R2$$$V2.0)	0.29 µM	0.54 µM	> 128 µM	> 128 µM	2.5 µM	> 100 µM	> 128 µM	> 128 µM	> 128 µM	1.7 µM	> 128 µM	> 128 µM	> 128 µM	0.1 µM	> 128 µM	> 128 µM	2.3 µM	> 100 µM
C[C@@H]1NC(=O)[C@H]([C@@H](C)O)NC(=O)[C@H](Cc2ccc(O)cc2)NC(=O)[C@@H]2CCCN2C(=O)[C@H](Cc2ccc(O)cc2)NC(=O)[C@H](CCCNC(=N)N)NC(=O)[C@@H]2CCCN2C(=O)[C@H](CC(N)=O)NC1=O [CYCLONELLIN] (HELM PEPTIDE1{A.N.P.R.Y.P.Y.T}$PEPTIDE1,PEPTIDE1,1:R1-8:R2$$$V2.0)	> 50 µM	> 50 µM	> 128 µM	> 128 µM	> 50 µM	> 100 µM	> 128 µM	> 128 µM	> 128 µM	> 50 µM	> 128 µM	> 128 µM	> 128 µM	> 50 µM	> 128 µM	> 128 µM	> 50 µM	> 100 µM
CC[C@H](C)[C@@H]1NC(=O)[C@H](C)NC(=O)[C@H](CC[S+](C)[O-])NC(=O)[C@H](C)NC(=O)[C@H](CC(N)=O)NC(=O)[C@H](Cc2ccccc2)NC(=O)[C@@H]2CCCN2C1=O (stereo partly drawn) (HELM PEPTIDE1{A.I.P.F.N.A.[CS(=O)CC[C@H](N[*:1])C(=O)[*:2]]}$PEPTIDE1,PEPTIDE1,1:R1-7:R2$$$V2.0)	11 µM	15 µM	> 128 µM	> 128 µM	12 µM	> 100 µM	> 128 µM	> 128 µM	> 128 µM	12 µM	> 128 µM	> 128 µM	> 128 µM	12 µM	> 128 µM	> 128 µM	13 µM	> 100 µM
CC[C@H](C)[C@@H]1NC(=O)[C@H](Cc2ccccc2)NC(=O)[C@@H]2CCCN2C(=O)[C@H](Cc2ccc(O)cc2)NC(=O)[C@H](CCC(=O)O)NC(=O)[C@@H]2CCCN2C(=O)[C@@H]2CCCN2C1=O (HELM PEPTIDE1{E.Y.P.F.I.P.P}$PEPTIDE1,PEPTIDE1,1:R1-7:R2$$$V2.0)	3.9 µM	19 µM	> 128 µM	> 128 µM	17 µM	> 100 µM	> 128 µM	> 128 µM	> 128 µM	11 µM	> 128 µM	> 128 µM	> 128 µM	6.2 µM	> 128 µM	> 128 µM	11 µM	> 100 µM

Source: ChEMBL document CHEMBL4145614, “Cyclopeptides from the Sponge Stylissa flabelliformis” (J Nat Prod, 2018)
